Assay results: PubChem BioAssay AID1963842 (Molecular Pharmacology Branch, DTP, NCI, 2024)

System: 677734-321-R-J1-PDC complex spheroid viability
Assay: Anticancer human tumor 677734-321-R-J1-PDC patient-derived soft tissue sarcoma cell line growth inhibition [POLQ]
Settings: for IC50: curve of first compound; for viability, T/C: stronger effect = lower value
Protocol: Multicellular complex tumor spheroid response to Polymerase (POL) inhibitors (novobiocin, ART-558, RP6685) in combination with a variety of drugs and investigational agents in selected tumor cell lines
The POL inhibitors (novobiocin, ART-558, and RP6685) were evaluated both individually and in combination with standard of care and investigational anticancer small molecules within a complex spheroid model of solid tumors. . Complex spheroids include a stromal component modeled by human endothelial cells (HUVEC) and fibroblasts modeled by human mesenchymal stem cells (MSCs). The concentration ranges selected for each drug and investigational agent were based upon clinically achievable concentrations if the clinical Cmax of the agent was known.
Compounds. The drugs and investigational agents: novobiocin (NSC847541), ART-558 (NSC835418), RP-6685 (NSC848927), peposertib (NSC802822), ceralasertib (NSC780249), elimusertib (NSC800525), camonsertib (NSC841442), AZD-1390 (NSC803789), olaparib (NSC753686), talazoparib (NSC767125), rucaparib (NSC756644), sotorasib (NSC818433), MRTX-1133 (NSC836407), SN-38 (NSC673596), topotecan (NSC609699), epotoside (NSC141540), doxorubicin (NSC123127), gemcitabine (NSC613327), 5-fluorouracil (NSC19893), paclitaxel (NSC125973), vemurafenib (NSC761431), MSA-2 (NSC828583), SN-011 (NSC837082), adavosertib (NSC754352), prexasertib (NSC758257), carboplatin (NSC241240) and oxaliplatin (NSC266046), were obtained from the National Cancer Institute (NCI) Developmental Therapeutics Program Chemical Repository (21). The FDA-approved anticancer drug set is available from the Developmental Therapeutics Program at https://dtp.cancer.gov/organization/dscb/obtaining/. […] The stock solutions were prepared in dimethyl sulfoxide (DMSO, Sigma-Aldrich, St. Louis, MO, cat. D2650), except for the platinum compounds which were prepared in saline (Quality Biological, Gaithersburg, MD, cat. 114-055-101), at 800-fold the tested concentration and stored at -70 degrees C prior to their use. All drugs and investigational agents were tested over a range starting from a high concentration at or near the clinical Cmax and decreasing in half-log increments. If the clinical Cmax for an agent had not been determined, the highest concentration tested was 10 microM, except for SN-38, which was tested at a high concentration of 1 microM.
Cell Culture. All cells were maintained in an incubator at 37 degrees C and 5% CO2 with 95% humidity. The PDC lines were cultured according to standard operating procedures established by the NCI PDMR (https://pdmr.cancer.gov). Table 3 of the manuscript, lists the cell lines along with the number of the three cell types plated to form the mct-spheroids and media for tumor cell growth. After thawing, all PDC lines, except 997537-175-T-J1-PDC and 415267-285-R-J2-PDC, were cultured in Matrigel-coated flasks prepared with a working solution of 1X Ham's F-12 nutrient mix, without supplementation (Thermo Fisher Scientific, cat. 11765054), 100 U/mL penicillin-streptomycin (Thermo Fisher Scientific, cat. 15140122), and 2.5% Matrigel (Corning Inc., Corning, NY, cat. 354248) for the first three passages. The two PDC lines 997537-175-T-J1-PDC and 415267-285-R-J2-PDC were cultured on uncoated flasks. The 857933-349-R-J2-PDC line was cultured in 6C/Colon 1B media containing advanced DMEM/F-12 (Thermo Fisher Scientific, cat. 12634028), 10 mM HEPES (Thermo Fisher Scientific, cat. 15630080), 1X GlutaMAX supplement (Thermo Fisher Scientific, cat. 35050061), 0.1 mg/mL primocin (InvivoGen, San Diego, CA, cat. ant-pm-2), 10% defined fetal bovine serum, heat inactivated (HyClone Laboratories Inc., Logan, UT, cat. SH30070.03HI), 50% L-WRN conditioned media (ATCC, cat. CRL-3276), 1.25 mM N-Acetyl-L-cysteine (Sigma-Aldrich, cat. A9165), 10 mM nicotinamide (Sigma-Aldrich, cat. N0636), 1X B-27 supplement (Thermo Fisher Scientific, cat. 17504044), 1X N-2 supplement (Thermo Fisher Scientific, cat. […]
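Further: spheroids exposed to compounds for one week.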
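Wherever viability, T/C is given: 100% = vehicle DMSO treated spheroids.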

What does the source list for `CC[C@@]1(O)C(=O)OCc2c1cc1n(c2=O)Cc2cc3c(CN(C)C)c(O)ccc3nc2-1` + Cc1cccc(N(C)C(=O)C2C(O)CCN2c2nc(C)cc(C(F)(F)F)c2C#N)c1?
IC50 (second compound 0.0316 µM): 26.2 nM; IC50 (second compound 0.1 µM): 26.2 nM; IC50 (second compound 0.316 µM): 23 nM; IC50 (second compound 1 µM): 27.5 nM; IC50 (second compound 3.16 µM): 24.3 nM; IC50 (second compound 10 µM): 25.3 nM; viability, T/C (second compound 0.0316 µM, first compound 0.000316 µM): 104%; viability, T/C (second compound 0.0316 µM, first compound 0.001 µM): 105%; viability, T/C (second compound 0.0316 µM, first compound 0.00316 µM): 102%; viability, T/C (second compound 0.0316 µM, first compound 0.01 µM): 102%; viability, T/C (second compound 0.0316 µM, first compound 0.0316 µM): 39.4%; viability, T/C (second compound 0.0316 µM, first compound 0.1 µM): 15.8%; viability, T/C (second compound 0.1 µM, first compound 0.000316 µM): 103%; viability, T/C (second compound 0.1 µM, first compound 0.001 µM): 113%; viability, T/C (second compound 0.1 µM, first compound 0.00316 µM): 108%; viability, T/C (second compound 0.1 µM, first compound 0.01 µM): 99.9%; viability, T/C (second compound 0.1 µM, first compound 0.0316 µM): 40.2%; viability, T/C (second compound 0.1 µM, first compound 0.1 µM): 21.1%; viability, T/C (second compound 0.316 µM, first compound 0.000316 µM): 112%; viability, T/C (second compound 0.316 µM, first compound 0.001 µM): 112%; viability, T/C (second compound 0.316 µM, first compound 0.00316 µM): 100%; viability, T/C (second compound 0.316 µM, first compound 0.01 µM): 91.3%; viability, T/C (second compound 0.316 µM, first compound 0.0316 µM): 34.1%; viability, T/C (second compound 0.316 µM, first compound 0.1 µM): 17.8%; viability, T/C (second compound 1 µM, first compound 0.000316 µM): 124%; viability, T/C (second compound 1 µM, first compound 0.001 µM): 96.4%; viability, T/C (second compound 1 µM, first compound 0.00316 µM): 105%; viability, T/C (second compound 1 µM, first compound 0.01 µM): 100%; viability, T/C (second compound 1 µM, first compound 0.0316 µM): 42.2%; viability, T/C (second compound 1 µM, first compound 0.1 µM): 17.6%; viability, T/C (second compound 3.16 µM, first compound 0.000316 µM): 120%; viability, T/C (second compound 3.16 µM, first compound 0.001 µM): 100%; viability, T/C (second compound 3.16 µM, first compound 0.00316 µM): 109%; viability, T/C (second compound 3.16 µM, first compound 0.01 µM): 94.1%; viability, T/C (second compound 3.16 µM, first compound 0.0316 µM): 37%; viability, T/C (second compound 3.16 µM, first compound 0.1 µM): 17.5%; viability, T/C (second compound 10 µM, first compound 0.000316 µM): 108%; viability, T/C (second compound 10 µM, first compound 0.001 µM): 100%; viability, T/C (second compound 10 µM, first compound 0.00316 µM): 98.2%; viability, T/C (second compound 10 µM, first compound 0.01 µM): 91.9%; viability, T/C (second compound 10 µM, first compound 0.0316 µM): 39.8%; viability, T/C (second compound 10 µM, first compound 0.1 µM): 23.2%
